# According to US5436229A, “Bisulfite adducts of arginine aldehydes” (Eli Lilly and Company, priority 1994, dated 1995):
# Target: human thrombin (Homo sapiens, UniProt P00734)
# Experiment: Thrombin amidase inhibition (Kass), chromogenic substrate
# Format: biochemical
# Protocol: The assay is carried out by mixing 50 μl buffer (0.03M Tris, 0.15M NaCl, pH 7.4) with 25 μl of human thrombin solution (purified human thrombin, Enzyme Research Laboratories, South Bend, Ind., at 8 NIH units/ml) and 25 μl of test compound in a solvent (50% aqueous methanol (v:v)). Then 150 μl of an aqueous solution of the chromogenic substate (at 0.25 mg/ml) are added and the rates of hydrolysis of the substrate are measured by monitoring the reactions at 405 nm for the release of p-nitroaniline. Standard curves are constructed by plotting free thrombin concentration against hydrolysis rate. […] The amount of free inhibitor in each assay is calculated by subtracting the number of moles of bound thrombin from the number of moles of added inhibitor (test compound).
# The Kass value is the hypothetical equilibrium constant for the reaction between thrombin and the test compound (I) . [formula]
# Kass is calculated for a range of concentrations of test compounds and the mean value reported in units of liter per mole.
row,SMILES,Kass Human Thrombin [L/mol × 10^6]
1,"Cl.Cl.Cl.N=C(N)NCCC[C@@H](C=O)NC(=O)[C@@H]1CCCN1C(=O)[C@H]1C[C@H](Oc2ccc3ccccc3c2)CN1.O [Example 6, trans-4-(2-Naphthyloxy)-D-Prolinyl-L-Prolinyl-L-Arginine Aldehyde Trihydrochloride Monohydrate]",21
2,"Cl.Cl.Cl.N=C(N)NCCC[C@@H](C=O)NC(=O)[C@@H]1CCCN1C(=O)[C@H]1C[C@H](Sc2ccccc2)CN1.O.O.O [Example 14, trans-4-phenylthio-D-prolinyl-L-prolinyl-L-arginine aldehyde trihydrochloride trihydrate]",37
3,"CC(C)C1N[C@@H](C(=O)N2CCC[C@H]2C(=O)N[C@H](C=O)CCCNC(=N)N)C(C)(C)S1.Cl.Cl (stereo partly drawn) [Example 5, D-2-Isopropyl-5,5-Dimethylthiazolidinyl-4-Carbonyl-L-Prolinyl-L-Arginine Aldehyde Dihydrochloride]",4
4,"Cl.Cl.N=C(N)NCCC[C@@H](C=O)NC(=O)[C@@H]1CCCN1C(=O)C1CCCNC1.O (stereo partly drawn) [Example 19, 3-piperidinocarbonyl-L-Pro-L-Arginine Aldehyde Dihydrochloride Monohydrate]",2
5,"Cl.Cl.N=C(N)NCCC[C@@H](C=O)NC(=O)[C@@H]1CCCN1C(=O)CN1CCCCC1.O [Example 18, 2-(2-Piperidino)acetyl-L-Pro-L-Arginine Aldehyde Dihydrochloride Monohydrate]",1
6,"Cl.Cl.N=C(N)NCCC[C@@H](C=O)NC(=O)[C@@H]1CCCN1C(=O)C1CNC2CCCCC21.O (stereo partly drawn) [Example 20, 3-perhydroindolylcarbonyl-L-pro-L-Arginine Aldehyde Dihydrochloride Monohydrate]",11
7,"CNC1CCCCC1C(=O)N1CCC[C@H]1C(=O)N[C@H](C=O)CCCNC(=N)N.Cl.Cl (stereo partly drawn) [Example 21, 2-(N-methyl)aminocyclohexyl-carbonyl-L-Pro-L-Arginine Aldehyde Dihydrochloride]",18.4
